Test results published in ChEMBL document CHEMBL1201862, “PubChem BioAssay data set” (2004).
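Protocol summary: plate cells (96-well), add compound at 5 concentrations, incubate 48 h, interpolate endpoints linearly. At the GI50, growth is halved.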 The source made the active and inactive calls. Cut-off read from the data, not from the text of the source: active = GI50 up to about 1.1 µM and inactive = higher.

How the values were obtained:
Experiment in all cases: NCI-60 cell line screen, 48 h
[1] = system: DLD-1
[2] = system: DMS-273
[3] = system: OVCAR-5
[4] = system: TK-10
[5] = system: HL-60
[6] = system: SK-MEL-2
[7] = system: UACC-62
[8] = system: SNB-78
[9] = system: HCT-116
[10] = system: A498
[11] = system: RXF 393
[12] = system: HOP-92
[13] = system: NCI-H23
[14] = system: SK-MEL-5
[15] = system: MOLT-4
[16] = system: HT-29
[17] = system: KM-20L2
[18] = system: SNB-75
[19] = system: SN12C
[20] = system: HCC 2998
[21] = system: U-251
[22] = system: UACC-257
[23] = system: COLO 205
[24] = system: ACHN
[25] = system: CCRF-CEM
[26] = system: XF498
[27] = system: RPMI-8226
[28] = system: Malme-3M
[29] = system: 786-0
[30] = system: LOX IMVI
[31] = system: CAKI-1
[32] = system: SF-539
[33] = system: LXFL 529
[34] = system: A549
[35] = system: SNB-19
[36] = system: SK-MEL-28
[37] = system: SF-268
[38] = system: SW-620
[39] = system: HCT-15
[40] = system: M19-MEL
[41] = system: SF-295
[42] = system: K562
[43] = system: DMS-114
[44] = system: NCI-H226
[45] = system: NCI-H522
[46] = system: EKVX
[47] = system: UO-31
[48] = system: OVCAR-4
[49] = system: M14
[50] = system: IGROV-1
[51] = system: HOP-62
[52] = system: OVCAR-8
[53] = system: SK-OV-3
[54] = system: NCI-H460
[55] = system: KM12
[56] = system: SR
[57] = system: HOP-18
[58] = system: OVCAR-3

With `O=C1NC(=S)NC(=O)C1=Cc1ccc[nH]1` the GI50 [1] was 6.85 µM (inactive), the GI50 [2] was 3.79 µM (inactive) and the GI50 [3] was 23.2 µM (inactive). For the same molecule, the GI50 [4] was 17.4 µM (inactive), the GI50 [5] was 5.27 µM (inactive) and the GI50 [6] was 19.7 µM (inactive). For the same molecule, the GI50 [7] was 16.7 µM (inactive), the GI50 [8] was 19.4 µM (inactive) and the GI50 [9] was 3.48 µM (inactive). For the same molecule, the GI50 [10] was 35.2 µM (inactive), the GI50 [11] was 2.2 µM (inactive) and the GI50 [12] was 19.6 µM (inactive). For the same molecule, the GI50 [13] was 12.4 µM (inactive), the GI50 [14] was 26.5 µM (inactive) and the GI50 [15] was 16.2 µM (inactive). For the same molecule, the GI50 [16] was 4.38 µM (inactive), the GI50 [17] was 5.94 µM (inactive) and the GI50 [18] was 18 µM (inactive). The GI50 [19] was 10.6 µM (inactive), the GI50 [20] was 11.8 µM (inactive) and the GI50 [21] was 27.1 µM (inactive). The GI50 [22] was 20.9 µM (inactive), the GI50 [23] was 12.2 µM (inactive) and the GI50 [24] was 15 µM (inactive). For the same molecule, the GI50 [25] was 19.2 µM (inactive), the GI50 [26] was 17.7 µM (inactive) and the GI50 [27] was 3.41 µM (inactive). The GI50 [28] was 19.9 µM (inactive), the GI50 [29] was 10.6 µM (inactive) and the GI50 [30] was 9.06 µM (inactive). For the same molecule, the GI50 [31] was 11.2 µM (inactive), the GI50 [32] was 15.1 µM (inactive) and the GI50 [33] was 10.3 µM (inactive). The GI50 [34] was 26.7 µM (inactive), the GI50 [35] was 25.8 µM (inactive) and the GI50 [36] was 24.5 µM (inactive). For the same molecule, the GI50 [37] was 22.6 µM (inactive), the GI50 [38] was 4.81 µM (inactive) and the GI50 [39] was 2.87 µM. The GI50 [40] was 13.4 µM (inactive), the GI50 [41] was 10.5 µM (inactive) and the GI50 [42] was 11.2 µM (inactive). The GI50 [43] was 10.8 µM (inactive), the GI50 [44] was 14.5 µM (inactive) and the GI50 [45] was 1.87 µM (inactive). For the same molecule, the GI50 [46] was 24 µM (inactive), the GI50 [47] was 16.6 µM (inactive) and the GI50 [48] was 15.3 µM (inactive). The GI50 [49] was 21 µM (inactive), the GI50 [50] was 19.6 µM (inactive) and the GI50 [51] was 32.6 µM (inactive). The GI50 [52] was 4.71 µM (inactive), the GI50 [53] was > 100 µM (inactive) and the GI50 [54] was 8.11 µM (inactive). For the same molecule, the GI50 [55] was 3.48 µM (inactive), the GI50 [56] was 3.62 µM (inactive) and the GI50 [57] was 36.4 µM (inactive). For the same molecule, the GI50 [58] was 7.38 µM (inactive).
